{"source": "paper doi:10.1101/2025.04.25.650653", "about": "“Hierarchical small molecule inhibition of MYST acetyltransferases” (bioRxiv, 2025)", "key": {"[1]": {"system": "H3K14Ac (KAT7)", "experiment": "Histone acetylation biomarker western blot, MCF-7", "assay_type": "cell-based", "settings": "MCF-7 cells, 24 h"}, "[2]": {"system": "KAT5 MYST domain", "settings": "MYST domains, cited from earlier work"}, "[3]": {"system": "histone acetylation biomarkers for KAT6, KAT7, KAT8, and KAT5", "experiment": "Histone acetylation biomarker panel by western blot, MCF-7", "assay_type": "cell-based", "description": "Figure 5. Comparative cellular analysis of orthogonal MYST inhibitor chemotypes. (A) Chemical structures of commonly used MYST KAT inhibitors. Annotated target: KAT enzyme specified as target of each inhibitor in scientific or commercial vendor literature. Biomarker: KAT-regulated histone acetylation biomarker found to be modulated by each compound in this study. (B) Cellular response of histone acetylation biomarkers for KAT6, KAT7, KAT8, and KAT5 to treatment with drug-like MYST acetyltransferases inhibitors. MCF-7 cells were treated with escalating dosages (0.1, 1, 10, 30 μM.) of each compound for 24 h. […] Data is representative of n=2 biological replicates. […]\n(§1) Target engagement was assessed using the panel of MYST-dependent histone acetylation biomarkers defined above. […] While WM-3835 has been applied to study KAT7, its initial publication alludes to its ability to inhibit both KAT6A/B and KAT7.[14], [43] […] All commercial vendors currently market WM-3835 as a KAT7 inhibitor.\n(§2) General materials and methods\nTotal protein on western blots was\n(§3) manufacturer's protocols.\nKAT capture and competitive chemoproteomic profiling\n(§4) for 2 hours, then lyophilized."}, "[4]": {"system": "KAT6A MYST domain", "settings": "MYST domains, cited from earlier work"}, "[5]": {"system": "KAT7 MYST domain", "settings": "MYST domains, cited from earlier work"}, "[6]": {"system": "H4K16Ac (KAT8)", "experiment": "Histone acetylation biomarker western blot, MCF-7", "assay_type": "cell-based", "settings": "MCF-7 cells, 24 h, up to 30 μM", "protocol": "as §1, §2\nTotal protein on western blots was […]\nas §3\nKAT capture and competitive chemoproteomic profiling […]\nas §4\n12 μL triethylamine. […] The beads were then magnetically separated […]\ndistinguish between tightly grouped and diffuse clusters, compactness was quantified by calculating the average pairwise Euclidean distance between all points within each cluster. Clusters with lower average"}, "[7]": {"system": "H3K23Ac (KAT6A/B)", "experiment": "Histone acetylation biomarker western blot, MCF-7", "assay_type": "cell-based", "settings": "MCF-7 cells, 24 h"}, "[8]": {"system": "proteins captured by H3K14-CoA resin from HeLa nuclear extracts", "experiment": "Proteome-wide competitive chemoproteomic profiling (H3K14-CoA beads, TMT LC-MS/MS)", "assay_type": "binding", "settings": "for Log2FC (100nM) / (000nM): 100 nM WM-3835, H3K14-CoA beads; for Log2FC (100nM) / (000nM) / Log2FC (1000nM) / (000nM) / Log2FC (10000nM) / (000nM): TMT; for Log2FC (1000nM) / (000nM): 1000 nM WM-3835, H3K14-CoA beads; for Log2FC (10000nM) / (000nM): 10000 nM WM-3835, H3K14-CoA beads"}, "[9]": {"molecular_target": "KAT7 MYST domain", "settings": "SPR, MYST domains, as previously described (WM-8014); ref https://www.nature.com/articles/s41586-019-1835-6; cited from earlier work"}, "[10]": {"molecular_target": "KAT5 MYST domain", "settings": "SPR, MYST domains, as previously described (WM-8014); ref https://www.nature.com/articles/s41586-019-1835-6; cited from earlier work"}, "[11]": {"molecular_target": "KAT6A MYST domain", "settings": "SPR, MYST domains, cited from earlier work"}, "[12]": {"system": "NCI-60 cell line panel", "experiment": "NCI-60 cell line screen, sulforhodamine B growth inhibition", "assay_type": "cell-based, human", "settings": "most cases, 48 h"}, "[13]": {"system": "KAT8 MYST domain", "parameters": "method as in https://www.nature.com/articles/s41586-018-0387-5", "settings": "MYST domains, 0.4 uM AcCoA, H4 peptide; ref https://www.nature.com/articles/s41586-018-0387-5; cited from earlier work"}, "[14]": {"system": "KAT6B MYST domain", "parameters": "method as in https://www.nature.com/articles/s41586-018-0387-5", "settings": "MYST domains, 0.4 uM AcCoA, H4 peptide; ref https://www.nature.com/articles/s41586-018-0387-5; cited from earlier work"}, "[15]": {"settings": "protein MBTD1 (Q05BQ5, NuA4/Tip60)"}, "[16]": {"settings": "protein MRGBP (Q9NV56, NuA4/Tip60)"}, "[17]": {"settings": "protein TRRAP (Q9Y4A5, NuA4/Tip60)"}}, "note": "Read-outs that look alike come from different tables or passages of the source."}
{"smiles": "O=C(NNS(=O)(=O)c1ccccc1F)c1cc(F)cc(-c2ccccn2)c1", "note": "[WM-1119]", "values": [{"measurement": "inhibition of KAT7 (H3K14Ac) at the highest concentration tested", "setting": "[1]; 30 μM", "result": "little inhibition of KAT7"}, {"measurement": "IC50", "setting": "[2]; 1 μM acetyl-CoA, ref https://www.nature.com/articles/s41586-019-1835-6, read-out: KAT5 IC50 in μM (paper2)", "result": 9.8, "unit": "µM"}, {"measurement": "effect on biomarkers other than KAT6A/B", "setting": "[3]; MCF-7 cells, high concentrations", "result": "untouched"}, {"measurement": "IC50", "setting": "[4]; 0.4 uM AcCoA, ref https://www.nature.com/articles/s41586-018-0387-5, read-out: KAT6A IC50 in μM (paper 1)", "result": 0.0063, "unit": "µM"}, {"measurement": "IC50", "setting": "[4]; 1 μM acetyl-CoA, ref https://www.nature.com/articles/s41586-019-1835-6, read-out: KAT6A IC50 in μM (paper2)", "result": 0.077, "unit": "µM"}, {"measurement": "IC50", "setting": "[5]; 1 μM acetyl-CoA, ref https://www.nature.com/articles/s41586-019-1835-6, read-out: KAT7 IC50 in μM (paper2)", "result": 0.578, "unit": "µM"}]}
{"smiles": "Cc1cc(-c2ccccc2)cc(C(=O)NNS(=O)(=O)c2cccc(O)c2)c1F", "note": "[WM-3835]", "values": [{"measurement": "inhibition of KAT8 (H4K16Ac)", "setting": "[6]", "result": "not KAT8"}, {"measurement": "IC50", "setting": "[2]; 1 μM acetyl-CoA, WM-3835 sheet, ref https://www.nature.com/articles/s41586-019-1835-6, read-out: KAT5 IC50", "result": 0.312, "unit": "µM"}, {"measurement": "inhibition of KAT6A/B-catalyzed H3K23Ac", "setting": "[7]", "result": "potently inhibits"}, {"measurement": "more potent inhibition of KAT6A/B (H3K23Ac) than KAT7 (H3K14Ac)", "setting": "[3]; MCF-7 model, 24 h", "result": "~ 100 fold"}, {"measurement": "competition of JADE2 versus BRPF3 capture", "setting": "[8]; 0, 0.1, 1, 10 μM", "result": "differential competition of JADE2 and BRPF3 capture"}, {"measurement": "Log2FC (100nM) / (000nM)", "setting": "[8]; protein KAT14 (Q9H8E8, STAGA)", "result": 0.25}, {"measurement": "Log2FC (1000nM) / (000nM)", "setting": "[8]; protein KAT14 (Q9H8E8, STAGA)", "result": -0.01}, {"measurement": "Log2FC (10000nM) / (000nM)", "setting": "[8]; protein KAT14 (Q9H8E8, STAGA)", "result": -0.28}, {"measurement": "Log2FC (100nM) / (000nM)", "setting": "[8]; [15]", "result": 0.4}, {"measurement": "Log2FC (1000nM) / (000nM)", "setting": "[8]; [15]", "result": 0.54}, {"measurement": "Log2FC (10000nM) / (000nM)", "setting": "[8]; [15]", "result": 0.24}, {"measurement": "Log2FC (100nM) / (000nM)", "setting": "[8]; [16]", "result": 0.37}, {"measurement": "Log2FC (1000nM) / (000nM)", "setting": "[8]; [16]", "result": 0.49}, {"measurement": "Log2FC (10000nM) / (000nM)", "setting": "[8]; [16]", "result": 0.27}, {"measurement": "Log2FC (100nM) / (000nM)", "setting": "[8]; [17]", "result": -0.03}, {"measurement": "Log2FC (1000nM) / (000nM)", "setting": "[8]; [17]", "result": 0.04}, {"measurement": "Log2FC (10000nM) / (000nM)", "setting": "[8]; [17]", "result": -0.06}, {"measurement": "IC50", "setting": "[4]; 1 μM acetyl-CoA, WM-3835 sheet, ref https://www.nature.com/articles/s41586-019-1835-6, read-out: KAT6A IC50", "result": 0.017, "unit": "µM"}, {"measurement": "IC50", "setting": "[5]; 1 μM acetyl-CoA, WM-3835 sheet, ref https://www.nature.com/articles/s41586-019-1835-6, read-out: KAT7 IC50", "result": 0.03, "unit": "µM"}, {"measurement": "Kd", "setting": "[9]", "result": 34, "unit": "nM"}, {"measurement": "Kd", "setting": "[10]", "result": 500, "unit": "nM"}, {"measurement": "Kd", "setting": "[11]; as previously described (WM-8014), ref https://www.nature.com/articles/s41586-019-1835-6", "result": 7, "unit": "nM"}]}
{"smiles": "C[C@H](CN[C@@H](C(=O)Nc1ccc(-c2cnn(C)c2)cn1)c1ccccc1)c1ccc(C#N)cc1", "note": "[CPI-1612]", "values": [{"measurement": "growth inhibition potency compared with PF-9363", "setting": "[12]", "result": "much more potent"}]}
{"smiles": "Cc1cc(-c2ccccc2)cc(C(=O)NNS(=O)(=O)c2ccccc2)c1F", "note": "[WM-8014]", "values": [{"measurement": "inhibition of KAT8 (H4K16Ac)", "setting": "[6]", "result": "not KAT8"}, {"measurement": "doses at which KAT7 (H3K14Ac) is inhibited", "setting": "[1]", "result": "10 to 30", "unit": "µM"}, {"measurement": "IC50", "setting": "[2]; 5 uM AcCoA, H4 peptide, ref https://www.nature.com/articles/s41586-018-0387-5, read-out: KAT5 IC50", "result": 0.224, "unit": "µM"}, {"measurement": "IC50", "setting": "[4]; 0.4 uM AcCoA, H4 peptide, ref https://www.nature.com/articles/s41586-018-0387-5, read-out: KAT6A IC50", "result": 0.0082, "unit": "µM"}, {"measurement": "IC50", "setting": "[5]; 1 uM AcCoA, H4 FL, ref https://www.nature.com/articles/s41586-018-0387-5, read-out: KAT7 IC50", "result": 0.342, "unit": "µM"}, {"measurement": "IC50", "setting": "[13]", "result": 11000, "unit": "nM"}, {"measurement": "Kd", "setting": "[11]; ref https://www.nature.com/articles/s41586-018-0387-5", "result": 5.1, "unit": "nM"}, {"measurement": "IC50", "setting": "[14]", "result": 28, "unit": "nM"}]}
